The source of these data is patent publication US9328138B2 (priority 2011, dated 2016).

The target in experiment [1] is HCV NS3 protease genotype 3a (3A-1) (Hepatitis C virus genotype 3a, UniProt Q81258). The experiment in a line: HCV NS3 protease time-resolved fluorescence (TRF) assay, genotype 3a. As to conditions: Ki 3a. It is filed as biochemical. In a few lines: (§1)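 Assay buffer: 50 mM HEPES pH 7.5, 150 mM NaCl, 0.1% PEG 8000, 0.15% Triton X-100. Ten-minute enzyme–inhibitor preincubation; substrate at 25 nM final; 6 h reaction, room temperature; signal/background set at 5-20 by enzyme amount.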

The target in experiment [2] is T1, HCV genotype 1b (BK) NS3 modified enzyme with a R155K mutation (Hepatitis C virus genotype 1b, UniProt P26663, R1181K).
T1 construct: HCV genotype 1b (BK) NS3 modified enzyme
The experiment in a line: HCV NS3 protease time-resolved fluorescence (TRF) assay, genotype 1b R155K. The conditions noted are these: Ki 1b R155K, genotype 1b (BK) NS3 R155K; single value. It is filed as biochemical. In short, it runs like this:
as §1

For `C=C[C@@H]1C[C@]1(NC(=O)[C@@H]1C[C@@H]2CN1C(=O)[C@H](C1CCCC1)NC(=O)O[C@@H]1CCC[C@H]1CCCCCc1c(nc3ccccc3c1OCC)O2)C(=O)NS(=O)(=O)C1CC1` [Example 24, (3aR,7S,10S,12R,24aR)-7-cyclopentyl-N-{(1R,2S)-1-[(cyclopropylsulfonyl)carbamoyl]-2-ethenylcyclopropyl}-19-ethoxy-5,8-dioxo-1,2,3,3a,5,6,7,8,11,12,20,21,22,23,24,24a-hexadecahydro-10H-9,12-methanocyclopenta[18,19][1,10,3,6]dioxadiazacyclononadecino[11,12-b]quinoline-10-carboxamide], the Ki (usually a dissociation constant, usually derived from enzyme kinetics or from competition with a known ligand) amounted to 9.1 nM in experiment [1] and 0.39 nM in experiment [2].

Take `C=C[C@@H]1C[C@]1(NC(=O)[C@@H]1C[C@@H]2CN1C(=O)[C@H](C1CCCC1)NC(=O)O[C@@H]1CCC[C@H]1CC/C=C/Cc1c(nc3ccccc3c1OC(=O)NC(C)C)O2)C(=O)NS(=O)(=O)C1CC1` [Example 93, (3aR,7S,10S,12R,21E,24aS)-7-cyclopentyl-10-({(1R,2S)-1-[(cyclopropylsulfonyl)carbamoyl]-2-ethenylcyclopropyl}carbamoyl)-5,8-dioxo-1,2,3,3a,5,6,7,8,11,12,20,23,24,24a-tetradecahydro-10H-9,12-methanocyclopenta[18,19][1,10,3,6]dioxadiazacyclononadecino[11,12-b]quinolin-19-yl propan-2-ylcarbamate]: the Ki in experiment [1] is 2.8 nM; in experiment [2], 0.26 nM.

`C=CC1C[C@]1(NC(=O)[C@@H]1C[C@@H]2CN1C(=O)[C@H](C1CCCC1)NC(=O)O[C@@H]1CCC[C@H]1CC/C=C/Cc1c(nc3ccccc3c1OCCN1CCCCC1)O2)C(=O)NS(=O)(=O)C1CC1` (stereo partly shown) [Example 81]: the results for the Ki in experiment [1] and in experiment [2] were 4.6 nM and 0.29 nM, respectively.

Take `C=C[C@@H]1C[C@]1(NC(=O)[C@@H]1C[C@@H]2CN1C(=O)[C@H](C1CCCCC1)NC(=O)O[C@@H]1C[C@H]1CCCCCc1c(nc3ccccc3c1OCCCN1CCC(F)(F)CC1)O2)C(=O)NS(=O)(=O)C1(C)CC1` [Example 170]: the Ki in experiment [1] is 21 nM; in experiment [2], 1.1 nM.

With `C=C[C@@H]1C[C@]1(NC(=O)[C@@H]1C[C@@H]2CN1C(=O)[C@H](C(C)(C)C)NC(=O)O[C@@H]1C[C@H]1CCCCCc1c(nc3ccccc3c1OC)O2)C(=O)NS(=O)(=O)C1(C)CC1` [Example 119], the inhibitory constant (Ki) worked out at 3.2 nM in experiment [1] and 0.12 nM in experiment [2].

For the molecule `C=C[C@@H]1C[C@]1(NC(=O)[C@@H]1C[C@@H]2CN1C(=O)[C@H](C1CCCC1)NC(=O)O[C@@H]1CCC[C@H]1CC/C=C/Cc1c(nc3ccccc3c1OCCCN1CCCC(C)(C)C1)O2)C(=O)NS(=O)(=O)C1CC1` [Example 92, (3aR,7S,10S,12R,21E,24aS)-7-cyclo pentyl-N-{(1R,2S)-1-[(cyclopropylsulfonyl)carbamoyl]-2-ethenylcyclopropyl}-19-[3-(3,3-dimethylpiperidin-1-yl)propoxy]-5,8-dioxo-1,2,3,3a,5,6,7,8,11,12,20,23,24,24a-tetradeca hydro-10H-9,12-methano-cyclopenta[18,19][1,10,3,6]dioxa diazacyclononadecino[11,12-b] quinoline-10-carboxamide], the Ki in experiment [1] was determined as 19 nM; in experiment [2], 1.6 nM.

`C=C[C@@H]1C[C@]1(NC(=O)[C@@H]1C[C@@H]2CN1C(=O)[C@H](C(C)(C)C)NC(=O)O[C@@H]1C[C@H]1CCCCCc1c(nc3ccccc3c1OCCCCN1CCOCC1)O2)C(=O)NS(=O)(=O)C1(C)CC1` [Example 150, (1aR,5S,8S,10R,22aR)-5-tert-butyl-N-[(1R,2S)-2-ethenyl-1-{[(1-methylcyclopropyl)sulfonyl]carbamoyl}cyclopropyl]-17-[4-(morpholin-4-yl)butoxy]-3,6-dioxo-1,1a,3,4,5,6,9,10,18,19,20,21, 22,22a-tetradecahydro-8H-7,10-methanocyclopropa[18,19][1,10,3,6] dioxadiazacyclononadecino [11,12-b]quinoline-8-carboxamide]: the Ki in experiment [1] was 1.3 nM; in experiment [2] it was 0.12 nM.

As to `C=C[C@@H]1C[C@]1(NC(=O)[C@@H]1C[C@@H]2CN1C(=O)[C@H](C1CCCC1)NC(=O)O[C@@H]1CCC[C@H]1CC/C=C/Cc1c(nc3ccccc3c1OCC(=O)N1CCCC1)O2)C(=O)NS(=O)(=O)C1CC1` [Example 67, (3aR,7S,10S,12R,21E,24aS)-7-cyclopentyl-N-{(1R,2S)-1-[(cyclopropylsulfonyl)carbamoyl]-2-ethenylcyclopropyl}-5,8-dioxo-19-[2-oxo-2-(pyrrolidin-1-yl)ethoxy]-1,2,3,3a,5,6,7,8,11,12,20,23,24,24a-tetradecahydro-10H-9,12-methanocyclopenta[18,19][1,10,3,6]dioxadiazacyclononadecino[11,12-b]quinoline-10-carboxamide], the Ki is 6.6 nM in experiment [1] and 0.081 nM in experiment [2].

Regarding `C=C[C@@H]1C[C@]1(NC(=O)[C@@H]1C[C@@H]2CN1C(=O)[C@H](C(C)(C)C)NC(=O)O[C@@H]1C[C@H]1CCCCCc1c(nc3ccccc3c1OCCCN(C)CC1CCC(=O)N1)O2)C(=O)NS(=O)(=O)C1(C)CC1` (stereo partly drawn) [Example 195, (1aR,5S,8S,10R,22aR)-5-tert-butyl-N-[(1R,2S)-2-ethenyl-1-{[(1-methylcyclopropyl)sulfonyl]carbamoyl}cyclopropyl]-17-(3-{methyl[(5-oxopyrrolidin-2-yl)methyl]amino}propoxy)-3,6-dioxo-1,1a,3,4,5,6,9,10,18, 19,20,21,22,22a-tetradecahydro-8H-7,10-methanocyclopropa[18,19][1,10,3,6] dioxadiazacyclononadecino[11,12-b] quinoline-8-carboxamide], the results for the Ki in experiment [1] and in experiment [2] were 0.66 nM and 0.049 nM, respectively.

As for `C=C[C@@H]1C[C@]1(NC(=O)[C@@H]1C[C@@H]2CN1C(=O)[C@H](C1CCCC1)NC(=O)O[C@@H]1CCC[C@H]1CC/C=C/Cc1c(nc3ccccc3c1OCCCOCCOC)O2)C(=O)NS(=O)(=O)C1(C)CC1` [Example 57, (3aR,7S,10S,12R,21E,24aS)-7-cyclopentyl-N-[(1R,2S)-2-ethenyl-1-{[(1-methylcyclopropyl)sulfonyl]carbamoyl}cyclopropyl]-19-[3-(2-methoxyethoxy)propoxy]-5,8-dioxo-1,2,3,3a, 5,6,7,8,11,12,20,23,24,24a-tetradecahydro-10H-9,12-methanocyclopenta[18,19][1,10,3,6]dioxadiazacyclononadecino[11,12-b] quinoline-10-carboxamide], the Ki in experiment [1] was 2.3 nM; in experiment [2], 0.11 nM.

As to `C=C[C@@H]1C[C@]1(NC(=O)[C@@H]1C[C@@H]2CN1C(=O)[C@H](C(C)(C)C)NC(=O)O[C@@H]1C[C@H]1CCCCCc1c(nc3ccccc3c1OCCCN(C)Cc1n[nH]c(=O)[nH]1)O2)C(=O)NS(=O)(=O)C1(C)CC1` [Example 199, (1aR,5S,8S,10R,22aR)-5-tert-butyl-N-[(1R,2S)-2-ethenyl-1-{[(1-methylcyclopropyl)sulfonyl]carbamoyl}cyclopropyl]-17-(3-{methyl[(5-oxo-4,5-dihydro-1H-1,2,4-triazol-3-yl)methyl]amino}propoxy)-3,6-dioxo-1,1a,3,4,5,6,9,10,18,19,20,21, 22,22a-tetradecahydro-8H-7,10-methanocyclopropa[18,19][1,10,3,6] dioxadiazacyclononadecino[11,12-b] quinoline-8-carboxamide], the Ki in experiment [1] is 0.74 nM; in experiment [2], 0.057 nM.

Take `C=C[C@@H]1C[C@]1(NC(=O)[C@@H]1C[C@@H]2CN1C(=O)[C@H](C(C)(C)C)NC(=O)O[C@@H]1C[C@H]1CCCCCc1c(nc3ccccc3c1OCCCNC1CCOCC1)O2)C(=O)NS(=O)(=O)C1(C)CC1` [Example 181, (1aR,5S,8S,10R,22aR)-5-tert-butyl-N-[(1R,2S)-2-ethenyl-1-{[(1-methylcyclopropyl)sulfonyl]carbamoyl}cyclopropyl]-3,6-dioxo-17-[3-(tetrahydro-2H-pyran-4-ylamino)propoxy]-1,1a,3,4,5,6,9,10,18, 19,20,21,22,22a-tetradecahydro-8H-7,10-methanocyclopropa[18,19][1,10,3,6] dioxadiazacyclononadecino[11,12-b] quinoline-8-carboxamide]: the Ki in experiment [1] worked out at 0.78 nM; in experiment [2] it was 0.065 nM.

For the molecule `C=C[C@@H]1C[C@]1(NC(=O)[C@@H]1C[C@@H]2CN1C(=O)[C@H](C1CCCC1)NC(=O)O[C@@H]1CCC[C@H]1CCCCCc1c(nc3ccccc3c1OC)O2)C(=O)NS(=O)(=O)C1CC1` [Example 26, (3aR,7S,10S,12R,24aR)-7-cyclo pentyl-N-{(1R,2S)-1-[(cyclopropylsulfonyl)carbamoyl]-2-ethenylcyclopropyl}-19-methoxy-5,8-dioxo-1,2,3,3a,5,6,7,8,11,12,20,21,22,23,24,24a-hexadecahydro-10H-9,12-methanocyclopenta [18,19][1,10,3,6]dioxadiazacyclononadecino [11,12-b]quinoline-10-carboxamide], the Ki in experiment [1] amounted to 13 nM; in experiment [2], 0.33 nM.

As to `C=C[C@@H]1C[C@]1(NC(=O)[C@@H]1C[C@@H]2CN1C(=O)[C@H](C(C)(C)C)NC(=O)O[C@@H]1C[C@H]1CCCCCc1c(nc3cc(C(C)C)ccc3c1OCCCN1CCOCC1)O2)C(=O)NS(=O)(=O)C1(C)CC1` [Example 161, (1aR,5S,8S,10R,22aR)-5-tert-butyl-N-[(1R,2S)-2-ethenyl-1-{[(1-methylcyclopropyl)sulfonyl]carbamoyl}cyclopropyl]-17-[3-(morpholin-4-yl)propoxy]-3,6-dioxo-14-(propan-2-yl)-1,1a,3,4,5,6,9,10,18,19,20,21,22,22a-tetradecahydro-8H-7,10-methanocyclopropan[18,19] [1,10,3,6]dioxadiazacyclononadecino [11,12-b]quinoline-8-carboxamide], the Ki turned out to be 2.8 nM in experiment [1] and 0.31 nM in experiment [2].
